Assay results from patent US9097673B2, “Processes and kits for determining multi-drug resistance of cells” (ENZO LIFE SCIENCES, INC., priority 2010, dated 2015).

What was measured:
[1] = system: CHO K1 cell line; assay: Dye uptake flow cytometry MDR assay; format: cell-based, hamster; conditions: for D-values, Cyclosporin A / D-values, Novobiocin / D-values, Probenecid / D-values, Verapamil / MAF, Cyclosporin A / MAF, Novobiocin / MAF, Probenecid / MAF, Verapamil: Fluo-8 AM probe, dye uptake;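 on all read-outs here: flow cytometry of dye-loaded cells, Kolmogorov-Smirnov D value (0 to 1.0) comparing fluorescence with versus without inhibitor, made negative when the uninhibited control was brighter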
Description: (§7) Concentrations of the modulators used in the experiments were non-toxic to the cells (based upon standard 3-(4,5-Dimethylthiazol-2-Yl)-2,5-Diphenyltetrazolium Bromide (MTT) testing, data not shown). Fluo-8™ was used in all experiments at 5 μM, and Rhod-4™—at 4 μM final concentrations.
(§8) Cells were grown on tissue culture dishes and on the day of assay were trypsinized and washed twice with warm (37° C.) phosphate-buffered saline (PBS). Post-wash, the cells were re-suspended in warm phenol red indicator-free medium at a density of 1×10^6/ml. For each detection set, sixteen tubes (5 samples in triplicates plus non-stained control for background fluorescence) in numbered tubes each containing 5×10^5/cells (0.5 ml) were prepared. […] After incubation for 5 min at 37° C., 0.25 ml of warm medium with Fluo-8™ AM probe (5 μM final concentration) or Rhod-4™ AM probe (2 μM final concentration) was added to each tube excluding non-stained control that receives plain medium and cells were incubated for 30 min at 37° C. and analyzed immediately by flow cytometry. In the second set of the tubes, the reaction was stopped by rapid centrifugation (1 min) at relatively low speed (200×g). After wash with ice-cold PBS and discarding the supernatant, cells were re-suspended in 0.5 ml of ice-cold medium and kept on ice until flow cytometry analysis. The third set of cells simply was spun down (1 min, 200×g) to remove the excess of the probe, resuspended in ice-cold medium and kept on ice until flow cytometry analysis.
(§9) Fluo-8™ dye fluorescence was measured in the FL1 channel, and Rhod-4™ dye fluorescence—in the FL2 channel.

[2] = system: HeLa cell line; assay: Dye efflux flow cytometry MDR assay; format: cell-based, human; set-up: key to D-value, Verapamil / D-value, Novobiocin: KS D value, 0 to 1; negative if control brighter than sample; conditions: for D-value, +4° C.: kept on ice without inhibitor
Description: (§1) Kolmogorov-Smirnov statistics measures the difference between two distribution functions and generates a D value ranging between 0 and 1.0, with higher values indicating a greater difference between the distribution functions. The D value generated by the KS statistics was modified by ascribing a negative value if the fluorescence of a negative control (no inhibitor) was brighter than the fluorescence of the sample with inhibitor. The method was one of those recommended by the First International MDR1 Methods Detection Workshop (St. Jude Children's Research Hospital, Memphis, Tenn.).
(§2) Cells were grown in tissue culture dishes and on the day of assay they were trypsinized and washed twice with ice-cold PBS. Post-wash, the cells were re-suspended in cold phenol red indicator-free medium at a density of 1×10^6/ml. For each detection set, eighteen tubes (6 tubes without inhibitor and 3 tubes for each inhibitor tested, in triplicates) each containing 2.5-5×10^5/cells were prepared. Cells were centrifuged at 200×g for 5 min, and after discarding supernatant, re-suspended at 1×10^6/ml in ice-cold indicator-free medium containing Fluo-8™ AM or Rhod-4™ AM probes. Additionally, an aliquot of non-stained cells was prepared for background fluorescence measurements. Cells were incubated with the probe(s) on ice for 60 min, than centrifuged at 200×g for 5 min. After discarding the supernatant, cells were either washed twice with PBS or simply were spun down to remove the excess of the probe and resuspended at 5×10^5 cells/sample in 0.5 ml of following solutions:
(§3) 1. warm (37° C.) indicator-free medium containing vehicle only (3 tubes)
(§4) 2. warm (37° C.) indicator-free medium containing inhibitor (3 tubes for each inhibitor tested)
(§5) 3. ice-cold indicator-free medium (3 tubes)
(§6) Tube sets 1 and 2 were immediately transferred to a water bath (37° C.) and incubated for 90 min. Tube set 3 was kept on ice. Post incubation, 4 ml of ice-cold indicator-free medium was added per tube, tubes were centrifuged at 200×g for 5 min, supernatant was discarded, and cell pellet was re-suspended in the cold indicator-free medium and centrifuged again. Finally, cells were re-suspended in 0.5 ml of cold indicator-free medium and maintained on ice until analysis. Alternatively, cells were analyzed without washing. Flow cytometry experiments were performed as described in Example 3.

[3] = system: A549 cell line; assay: Dye efflux flow cytometry MDR assay; format: cell-based, human; set-up: key to D-value, Verapamil / D-value, Novobiocin: KS D value, 0 to 1; negative if control brighter than sample; conditions: for D-value, +4° C.: kept on ice without inhibitor
Description: as §1, §2, §3, §4, §5, §6

[4] = system: HeLa cell line; assay: Dye uptake flow cytometry MDR assay; format: cell-based, human; conditions: HeLa, dye uptake
Description: as §7, §8, §9

[5] = system: CHO K1, A549 and HeLa cells; assay: MTT test of dye toxicity; format: cell-based; conditions: 5 μM Fluo-8 AM, 3 h at 37° C.
Description: Three model cell lines (CHO K1, A549 and HeLa cells) were seeded in 96 well plates (5×10^3 cells/well) and 24 h later were treated with the working concentrations of dyes (0.5 μM of Calcein AM, 5 μM of Fluo-8™ AM, 4 μM of Rhod-4™ AM) used in the MDR assay for 3 h at 37° C. Then reagents were removed and a standard MTT test was performed as described elsewhere [Mosmann T., J Immunol Methods 65(1-2):55-63 (1983)]. Viability was calculated as a ratio of OD595 for treated cells to the OD595 of untreated control cells (FIG. 4). […] Additionally, the concentration of Rhod-4™ AM can be decreased further for particularly sensitive cell lines.

[6] = system: A549 cell line; assay: Dye uptake flow cytometry MDR assay; format: cell-based, human; conditions: A549, dye uptake
Description: as §7, §8, §9

[7] = CHO K1, dual probes Fluo-8 AM (FL1) + Pheophorbide A (FL3)
[8] = CHO K1, dye uptake, average of three independent experiments (Table 10)
[9] = CHO K1, dye uptake, average of three representative experiments (Table 6)
[10] = CHO K1, dye uptake, representative experiment (Table 8)
[11] = representative experiment (Table 9)
[12] = A549, dye efflux, representative experiment (Table 9)
[13] = Fluo-8 AM probe, dye efflux, A549, No Wash
[14] = Fluo-8 AM probe, dye efflux, A549, Wash
[15] = average of three representative experiments (Table 6)
[16] = representative experiment (Table 8)
[17] = average of three independent experiments (Table 10)

For `CC(=O)OCOC(=O)CN(CC(=O)OCOC(C)=O)c1ccccc1OCCOc1cc(-c2c3ccc(=O)cc-3oc3cc(OCOC(C)=O)ccc23)ccc1N(CC(=O)OCOC(C)=O)CC(=O)OCOC(C)=O` [Fluo-8 ™ AM], the “D-values Post Inhibitor Treatment (compared to uninhibited cells), CsA” value [1, 7] was 0.94, the “D-values Post Inhibitor Treatment (compared to uninhibited cells), FTC” value [1, 7] was 0.56 and the “D-values Post Inhibitor Treatment (compared to uninhibited cells), MK-571” value [1, 7] was 0.98. For the same compound, the “D-values Post Inhibitor Treatment (compared to uninhibited cells), Verapamil” value [1, 7] was 0.9, the “D-value, Cyclosporine A” value [1, 8] was 0.89 and the “D-value, FTC” value [1, 8] was 0.28. For the same compound, the “D-value, MK-571” value [1, 8] was 0.95, the “D-value, Novobiocin” value [1, 8] was 0.68 and the “D-value, Verapamil” value [1, 8] was 0.74. The “D-value, Fumitremorgan C” value [1, 9] was 0.48, the “D-value, Probenecid” value [1, 9] was 0.69 and the “D-value, Verapamil” value [1, 9] was 0.84. For the same compound, the “D-value, Cyclosporine A” value [1, 10] was 0.96, the “D-value, Novobiocin” value [1, 10] was 0.78 and the “D-value, Probenecid” value [1, 10] was 0.89. For the same compound, the “D-value, Verapamil” value [1, 10] was 0.83, the “D-values, Cyclosporin A” value ([1]; No Wash) was 0.97 and the “D-values, Novobiocin” value ([1]; No Wash) was 0.98. The “D-values, Probenecid” value ([1]; No Wash) was 0.9, the “D-values, Verapamil” value ([1]; No Wash) was 0.81 and the “MAF, Cyclosporin A” value ([1]; No Wash) was 93.0. For the same compound, the “MAF, Novobiocin” value ([1]; No Wash) was 93.5, the “MAF, Probenecid” value ([1]; No Wash) was 85.4 and the “MAF, Verapamil” value ([1]; No Wash) was 77.6. The “D-values, Cyclosporin A” value ([1]; Spin) was 0.94, the “D-values, Novobiocin” value ([1]; Spin) was 0.97 and the “D-values, Probenecid” value ([1]; Spin) was 0.9. For the same compound, the “D-values, Verapamil” value ([1]; Spin) was 0.76, the “MAF, Cyclosporin A” value ([1]; Spin) was 91.5 and the “MAF, Novobiocin” value ([1]; Spin) was 92.4. For the same compound, the “MAF, Probenecid” value ([1]; Spin) was 85.0, the “MAF, Verapamil” value ([1]; Spin) was 73.0 and the “D-values, Cyclosporin A” value ([1]; Wash) was 0.94. For the same compound, the “D-values, Novobiocin” value ([1]; Wash) was 0.94, the “D-values, Probenecid” value ([1]; Wash) was 0.87 and the “D-values, Verapamil” value ([1]; Wash) was 0.76. For the same compound, the “MAF, Cyclosporin A” value ([1]; Wash) was 91.6, the “MAF, Novobiocin” value ([1]; Wash) was 91.3 and the “MAF, Probenecid” value ([1]; Wash) was 86.2. For the same compound, the “MAF, Verapamil” value ([1]; Wash) was 73.5, the “D-value, Cyclosporin A” value ([2]; Fluo-8 AM probe, No Wash) was 0.12 and the “D-value, Novobiocin” value ([2]; Fluo-8 AM probe, No Wash) was 0.13. For the same compound, the “D-value, Probenecid” value ([2]; Fluo-8 AM probe, No Wash) was 0.13, the “D-value, Verapamil” value ([2]; Fluo-8 AM probe, No Wash) was 0.076 and the “D-value, +4° C.” value ([2]; Fluo-8 AM probe, No Wash) was 0.15. The “D-value, Cyclosporin A” value ([2]; Fluo-8 AM probe, Wash) was 0.14, the “D-value, Novobiocin” value ([2]; Fluo-8 AM probe, Wash) was 0.16 and the “D-value, Probenecid” value ([2]; Fluo-8 AM probe, Wash) was 0.14. The “D-value, Verapamil” value ([2]; Fluo-8 AM probe, Wash) was 0.14, the “D-value, +4° C.” value ([2]; Fluo-8 AM probe, Wash) was 0.14 and the “D-value, 4° C.” value ([2]; kept on ice without inhibitor (Table 9)) was 0.83. For the same compound, the “D-value, Cyclosporine A” value [2, 11] was 0.13, the “D-value, Novobiocin” value [2, 11] was 0.15 and the “D-value, Probenecid” value [2, 11] was 0.16. For the same compound, the “D-value, Verapamil” value [2, 11] was 0.15, the “D-value, 4° C.” value ([3]; A549, dye efflux, kept on ice without inhibitor (Table 9)) was 0.80 and the “D-value, Cyclosporine A” value [3, 12] was 0.5. For the same compound, the “D-value, Novobiocin” value [3, 12] was 0.57, the “D-value, Probenecid” value [3, 12] was 0.33 and the “D-value, Verapamil” value [3, 12] was 0.02. For the same compound, the “D-value, Cyclosporin A” value [3, 13] was 0.83, the “D-value, Novobiocin” value [3, 13] was 0.57 and the “D-value, Probenecid” value [3, 13] was 0.33. The “D-value, Verapamil” value [3, 13] was 0.12, the “D-value, +4° C.” value [3, 13] was 0.77 and the “D-value, Cyclosporin A” value [3, 14] was 0.71. For the same compound, the “D-value, Novobiocin” value [3, 14] was 0.46, the “D-value, Probenecid” value [3, 14] was 0.18 and the “D-value, Verapamil” value [3, 14] was 0.11. The “D-value, +4° C.” value [3, 14] was 0.75, the “D-value, Fumitremorgan C” value [4, 15] was 0.15 and the “D-value, Probenecid” value [4, 15] was 0. For the same compound, the “D-value, Verapamil” value [4, 15] was 0.10, the “D-value, Cyclosporine A” value [4, 16] was 0.14 and the “D-value, Novobiocin” value [4, 16] was 0.09. For the same compound, the “D-value, Probenecid” value [4, 16] was 0.15, the “D-value, Verapamil” value [4, 16] was 0.04 and the “Toxicity to the cells (MTT viability)” value [5] was “not toxic”. The “D-value, Cyclosporine A” value [6, 17] was 0.43, the “D-value, FTC” value [6, 17] was 0.31 and the “D-value, MK-571” value [6, 17] was 0.61. For the same compound, the “D-value, Novobiocin” value [6, 17] was 0.37, the “D-value, Verapamil” value [6, 17] was 0.06 and the “D-value, Fumitremorgan C” value [6, 15] was 0.23. For the same compound, the “D-value, Probenecid” value [6, 15] was 0.26, the “D-value, Verapamil” value [6, 15] was 0.07 and the “D-value, Cyclosporine A” value [6, 16] was 0.51. For the same compound, the “D-value, Novobiocin” value [6, 16] was 0.44, the “D-value, Probenecid” value [6, 16] was 0.49 and the “D-value, Verapamil” value [6, 16] was 0.09.
